Measurements taken from publication PMC11588130 (Proceedings of the National Academy of Sciences of the …, 2024).

Biological target: T1, human FXR (cotransfected with RXR) (Homo sapiens, UniProt Q96RI1)
T1 sequence (Q96RI1 1-486): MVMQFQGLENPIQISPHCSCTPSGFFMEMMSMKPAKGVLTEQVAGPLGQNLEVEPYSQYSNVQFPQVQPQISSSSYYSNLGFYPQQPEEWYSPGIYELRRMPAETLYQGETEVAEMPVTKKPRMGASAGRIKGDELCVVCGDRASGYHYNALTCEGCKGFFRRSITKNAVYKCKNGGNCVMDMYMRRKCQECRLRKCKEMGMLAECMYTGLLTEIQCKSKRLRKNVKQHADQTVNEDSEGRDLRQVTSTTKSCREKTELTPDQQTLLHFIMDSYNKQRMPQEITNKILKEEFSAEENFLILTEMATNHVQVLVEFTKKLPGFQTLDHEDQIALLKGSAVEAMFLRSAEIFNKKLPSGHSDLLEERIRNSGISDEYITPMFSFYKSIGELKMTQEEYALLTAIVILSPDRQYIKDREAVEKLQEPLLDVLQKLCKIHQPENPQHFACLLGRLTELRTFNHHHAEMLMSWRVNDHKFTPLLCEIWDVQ
T1 sequence (P19793 1-462 partner): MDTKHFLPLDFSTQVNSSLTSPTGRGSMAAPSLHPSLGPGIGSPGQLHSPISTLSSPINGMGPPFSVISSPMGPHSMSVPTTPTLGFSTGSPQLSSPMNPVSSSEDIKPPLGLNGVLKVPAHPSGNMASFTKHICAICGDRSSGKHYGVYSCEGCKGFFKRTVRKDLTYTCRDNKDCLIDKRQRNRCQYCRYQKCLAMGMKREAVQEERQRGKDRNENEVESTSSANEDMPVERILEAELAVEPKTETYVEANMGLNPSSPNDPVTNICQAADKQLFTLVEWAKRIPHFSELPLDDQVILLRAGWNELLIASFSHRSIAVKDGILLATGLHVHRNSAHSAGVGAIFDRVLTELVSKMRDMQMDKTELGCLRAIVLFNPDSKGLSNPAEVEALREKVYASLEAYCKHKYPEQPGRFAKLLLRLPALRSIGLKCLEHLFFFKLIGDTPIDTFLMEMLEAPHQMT
Experiment: FXRE-luciferase reporter in HEK293
Assay type: cell-based

IC50: 13.8 µM
SMILES: C[C@H](CCC(=O)O)[C@H]1CC[C@H]2[C@@H]3C(=O)C[C@@H]4C[C@H](O)CC[C@]4(C)[C@H]3C[C@H](O)[C@]12C [7-oxo-DCA]
